Patent US11091490B2, “3-amino-1,5-dihydro-pyrazolo[3,4-d]pyrimidin-4-ones as cyclin dependent kinase inhibitors” (Oncotyrol Center for Personalized Cancer Medicine GMBH, priority 2016, dated 2021)
Several values for one entry are separate records, joined by “and”; a condition that tells them apart may be missing. Equal values may be shown once. Read-outs that look alike come from different tables or passages of the source.

What was measured:
U2OS (bone) = assay: In vitro proliferation screening (Sulforhodamin B) U2OS; format: cell-based, human; settings: 72 h
Excerpt: (§1) In order to evaluate the antitumor activity of the compounds of the present invention, in particular compound 86, in solid tumors, an in vitro proliferation screening in a panel of 10 different human cancer cell lines derived from solid tumors (see Table 5, below) as a model system.
(§2) Six 10-fold dilutions of compound 86 have been prepared in DMSO, from 5×10^−9 M to 5×10^−4. Single data points have been tested for each concentration. The final concentration of DMSO was 0.1%. The duration of the treatment was 72 hours. The growth inhibition was measured by using Sulforhodamin B, a protein-staining assay in accordance with Vichai V et. al. Nat. Protoc. 2006; 1(3):1112-6. Activity of the agents was determined by evaluating the following parameters: IC50, GI50, IC10, GI10, TGI, LC50, IC90 and GI90 (if these values could be calculated).

PBMC control cells = assay: In vitro proliferation screening (Sulforhodamin B) PBMC control cells; format: cell-based; settings: 72 h
Description: as §2

NCI-H929/GN2 = assay: Multiple myeloma cells in mono- and co-culture with osteoblasts, imaging based detection (NCI-H929); format: cell-based
Description: (§3) Compound 86 has been compared with the key compound of WO 2000/21926 A2 (Example 121) in an imaging based detection system.
(§4) Two different multiple myeloma (MM) cell lines (RPMI-8226 (DSMZ, ACC 402), NCI-H929 DSMZ, ACC 163) have been used and were cultured in mono- and co-culture with osteoblasts (OB) (Osteoblasts were obtained by culturing hMSCs with a differentiation inducing medium for two weeks) in accordance with the method of Karadag A. et al. Journal of Bone and Mineral Research Vol. 15, No. 10, 2000 page 1935-43.

Pharmacokinetic studies = settings: in vivo
Excerpt: Pharmacokinetic studies on the compounds of the present invention have been carried out in accordance with Endele R and Senn M., Int. J. Mass Spectrom. Ion Phys. 1983 January; 48:81-84. doi:10.1016/0020-7381(83)87033-8.

RPMI-8226/GN1 = assay: Multiple myeloma cells in mono- and co-culture with osteoblasts, imaging based detection (RPMI-8226); format: cell-based
Description: as §3, §4

A375 melanoma cells [1] = assay: Cell cycle analysis (propidium iodide FACS) A375; format: cell-based
Excerpt: (§5) In order to investigate the mode of action (MOA) related to the antitumor activity of the compounds of the present invention (in particular compound 86) in solid tumors and multiple myeloma, two experimental strategies were used to confirm the postulated MOA: 1) monitoring of apoptosis induction and 2) cell cycle analysis upon treatment with compound 86. Three cancer cell lines (LP-1, (multiple myeloma cells, DSMZ ACC 41), A375 (melanoma cells), and HeLa (cervix carcinoma cells)) as well as control cells (HS-5 bone marrow stroma cells, ATCC CRL-11882) were used to obtain mechanistic insight into the antitumor activity of compound 86.
(§6) Measuring of DNA content in cells is a well-established method for monitoring cell proliferation, cell cycle, fragmentation of nuclei (apoptosis) and DNA ploidy. Proliferating cells progress through various phases of the cell cycle (G0, G1, S, G2, and M phase). At different stages of the cell cycle and life cycle, cell nuclei contain different amounts of DNA. The DNA content in cell nuclei was analyzed by propidium iodide (PI) staining and FACS analysis after 12 and 24 h of treatment with 100 nM of compound 86 in accordance with the method of Desai Brijal M. et. al. PLOS Vol. 8; Issue 3; p. 1-11, 2013.

[2] = tested on: HT1080 (connective tissue); assay: In vitro proliferation screening (Sulforhodamin B) HT1080; format: cell-based, human; settings: HT1080, 72 h
Excerpt: as §1, §2

[3] = tested on: HeLa cervix carcinoma cells; assay: Annexin V/PI staining HeLa; format: cell-based; settings: 0.1 μM, 12 h and 24 h
Excerpt: as §5
(§7) Annexin V staining and Poly(ADP-ribose)-Polymerase 1 (PARP) protein cleavage was analyzed to identify a pro-apoptotic effect of compound 86 on tumor cells in accordance with the method of Koopman G, et. al. Blood 1994; 1; 84(5):1415-20. Annexin V allows the identification of cell surface changes that occur early during the apoptotic process by in situ detection, which is ideal for the analysis with adherent cells. Cleavage of PARP-1 by caspases is considered to be a hallmark of apoptosis and was therefore applied to monitor apoptosis induction after 24 h of treatment with 100 nM of compound 86.

[4] = tested on: LP-1 multiple myeloma cells; assay: Cell cycle analysis (propidium iodide FACS) LP1; format: cell-based
Excerpt: as §5, §6

COLO205 (colon) = assay: In vitro proliferation screening (Sulforhodamin B) COLO205; format: cell-based, human; settings: COLO205, 72 h, unit M
Excerpt: as §1, §2

[5] = tested on: HeLa cervix carcinoma cells; assay: Cell cycle analysis (propidium iodide FACS) HeLa; format: cell-based
Excerpt: as §5, §6

HCT116 (colon) = assay: In vitro proliferation screening (Sulforhodamin B) HCT116; format: cell-based, human; settings: HCT116, 72 h
Excerpt: as §1, §2

A375 melanoma cells [6] = assay: Annexin V/PI staining A375; format: cell-based; settings: A375, 0.1 μM, 12 h and 24 h
Excerpt: as §5, §7

GI50 (U2OS (bone); Homo sapiens, unit M): 94.2 nM
IC50 (U2OS (bone); Homo sapiens, unit M): 103 nM
EC50 (NCI-H929/GN2; Homo sapiens, NCI-H929, NCI-H929/GN2, co-culture with osteoblasts, read-out: co-culture (+ OB) EC50): 72 nM
EC50 (NCI-H929/GN2; Homo sapiens, NCI-H929, NCI-H929/GN2, mono-culture, read-out: mono-culture EC50): 62 nM
EC50 (NCI-H929/GN2; NCI-H929/GN2, co-culture with osteoblasts, read-out: co-culture (+ OB) EC50): 68 nM
EC50 (NCI-H929/GN2; NCI-H929/GN2, mono-culture, read-out: mono-culture EC50): 55 nM
oral bioavailability (Pharmacokinetic studies): display oral bioavailability
EC50 (RPMI-8226/GN1; Homo sapiens, RPMI-8226, RPMI-8226/GN1, co-culture with osteoblasts, read-out: co-culture (+ OB) EC50): 140 nM
EC50 (RPMI-8226/GN1; Homo sapiens, RPMI-8226, RPMI-8226/GN1, mono-culture, read-out: mono-culture EC50): 140 nM
EC50 (RPMI-8226/GN1; RPMI-8226/GN1, co-culture with osteoblasts, read-out: co-culture (+ OB) EC50): 220 nM and 180 nM
EC50 (RPMI-8226/GN1; RPMI-8226/GN1, mono-culture, read-out: mono-culture EC50): 190 nM and 120 nM
GI50 ([2]; Homo sapiens, HT-1080, unit M): 36.4 nM
IC50 ([2]; Homo sapiens, HT-1080, unit M): 38 nM
GI50 (COLO205 (colon)): 20.9 nM
GI50 (COLO205 (colon); Homo sapiens, COLO 205, 72 h): 21 nM
IC50 (COLO205 (colon); Homo sapiens, COLO 205): 24.2 nM
GI50 (HCT116 (colon); unit M): 5.82 nM
GI50 (HCT116 (colon); Homo sapiens, HCT-116, 72 h, rounded value of the conclusions): 5.8 nM
GI50 (HCT116 (colon); Homo sapiens, HCT-116, 72 h, unit M): 5.82 nM
IC50 (HCT116 (colon); Homo sapiens, HCT-116, unit M): 6.05 nM
Structure (SMILES): CCN(CC)CC(=O)Nc1ccc(Cc2nc3c(c(N(C)C)nn3-c3c(Cl)cc(S(N)(=O)=O)cc3Cl)c(=O)[nH]2)cc1 [Compound 86, N-{4-[1-(2,6-Dichloro-4-sulfamoyl-phenyl)-3-dimethylamino-4-oxo-4,5-dihydro-1H-pyrazolo[3,4-d]pyrimidin-6-ylmethyl]-phenyl}-2-diethylamino-acetamide]
growth inhibitory response in words (U2OS (bone)): responded rather weakly in the micromolar range
response to treatment (growth inhibition) (PBMC control cells): resistant
cell cycle profile (DNA content) (A375 melanoma cells [1]; A375, 0.1 μM, 12 and 24 h (FIG. 1A)): cell cycle defects and a progressive enrichment of the sub G1 group
cell cycle profile (DNA content) (A375 melanoma cells [1]; A375, 100 nM, 12 h): G2/M arrest
cell cycle profile (DNA content) (A375 melanoma cells [1]; A375, 100 nM, 24 h): started to enrich in the sub_G1 fraction
growth inhibitory response in words [2]: growth inhibition in the middle nanomolar range
induction of apoptosis (Annexin V/PI staining) [3]: specific induction of apoptosis
induction of apoptosis (Annexin V/PI staining) ([3]; listed as Otviciclib): reproducible induction of apoptosis
cell cycle profile (DNA content) ([4]; LP1, 0.1 μM, 12 and 24 h (FIG. 1A)): cell cycle defects and a progressive enrichment of the sub G1 group
cell cycle profile (DNA content) ([4]; LP1, 100 nM, 12 h): strong enrichment of nuclei in the sub_G1 fraction
cell cycle profile (DNA content) ([4]; LP1, 100 nM, 24 h): almost all intact nuclei of LP1 cells disappeared
cell cycle profile (DNA content) ([5]; 0.1 μM, 12 and 24 h (FIG. 1A)): cell cycle defects and a progressive enrichment of the sub G1 group
cell cycle profile (DNA content) ([5]; 100 nM, 12 h): unaffected
cell cycle profile (DNA content) ([5]; 100 nM, 24 h): clear response
induction of apoptosis (Annexin V/PI staining) (A375 melanoma cells [6]): specific induction of apoptosis
induction of apoptosis (Annexin V/PI staining) (A375 melanoma cells [6]; listed as Otviciclib): reproducible induction of apoptosis
